Literature values in patent US9089636B2, “Methods and devices for delivering GLP-1 and uses thereof” (VALERITAS, INC., priority 2004, dated 2015).
Read-outs that look alike come from different tables or passages of the source. Each block holds one molecule with its values, some of them ahead of it. No end group written: not given here.

Columns and labels:
human subjects [1] = details: physiologically relevant concentrations
rats [2] = details: ICV
Zucker diabetic rats = details: 2 day infusion
rats [3] = details: for effect on GLP-1-induced fecal output: rat, in vivo
young and old rats = details: infusion for 5 days
human volunteers = details: 60 minute infusion, 30 pmol/kg/h
[4] = tested on: Multiple islet cell lines
[5] = tested on: BHK fibroblasts expressing a transfected GLP-1 receptor
lean mice = details: subcutaneous, 2 days
[6] = tested on: subjects with type 2 diabetes; details: following a liquid test meal
rats [7] = details: for blood pressure and heart rate: centrally and peripherally administered
cultured myotubes = details: 0.1-1 pM
salt-sensitive rats = details: 14 day treatment, high salt diet
human islets = details: 5 days
neonatal GK rat = details: 5 days
fetal pig islet clusters = details: 75-90 day gestational age
[8] = tested on: cultured fetal rat hippocampal neurons; details: for extent of glutamate-induced cell death: short term cultures
[9] = tested on: human subjects with LV dysfunction and acute MI
[10] = biological target: dipeptidylaminopeptidase IV (DPP-IV) (Homo sapiens, UniProt P27487)
[11] = in vivo
CNS = details: in vivo
[12] = tested on: rat PC12 pheochromocytoma cell line
cloned GLP-1 receptor = cloned GLP-1 receptor (Homo sapiens, UniProt P43220)
rat pancreatectomy model = details: in vivo
blood brain barrier = details: CD1 mice
[13] = tested on: human islet-like cell clusters; details: 4 days in vitro
purified rat b cells = details: combination of cytotoxic cytokines
db/db mice [14] = tested on: db/db mice
db/db mice [15] = details: daily for 14 days
human subjects [16] = details: infusion
hippocampal neurons = details: systemic administration
[17] = after 72-hour infusion at 1.5 pmol/kg per minute
[18] = after reperfusion, before GLP-1 infusion

Sequence of dipeptidylaminopeptidase IV (DPP-IV) (P27487 whole entry, species assumed): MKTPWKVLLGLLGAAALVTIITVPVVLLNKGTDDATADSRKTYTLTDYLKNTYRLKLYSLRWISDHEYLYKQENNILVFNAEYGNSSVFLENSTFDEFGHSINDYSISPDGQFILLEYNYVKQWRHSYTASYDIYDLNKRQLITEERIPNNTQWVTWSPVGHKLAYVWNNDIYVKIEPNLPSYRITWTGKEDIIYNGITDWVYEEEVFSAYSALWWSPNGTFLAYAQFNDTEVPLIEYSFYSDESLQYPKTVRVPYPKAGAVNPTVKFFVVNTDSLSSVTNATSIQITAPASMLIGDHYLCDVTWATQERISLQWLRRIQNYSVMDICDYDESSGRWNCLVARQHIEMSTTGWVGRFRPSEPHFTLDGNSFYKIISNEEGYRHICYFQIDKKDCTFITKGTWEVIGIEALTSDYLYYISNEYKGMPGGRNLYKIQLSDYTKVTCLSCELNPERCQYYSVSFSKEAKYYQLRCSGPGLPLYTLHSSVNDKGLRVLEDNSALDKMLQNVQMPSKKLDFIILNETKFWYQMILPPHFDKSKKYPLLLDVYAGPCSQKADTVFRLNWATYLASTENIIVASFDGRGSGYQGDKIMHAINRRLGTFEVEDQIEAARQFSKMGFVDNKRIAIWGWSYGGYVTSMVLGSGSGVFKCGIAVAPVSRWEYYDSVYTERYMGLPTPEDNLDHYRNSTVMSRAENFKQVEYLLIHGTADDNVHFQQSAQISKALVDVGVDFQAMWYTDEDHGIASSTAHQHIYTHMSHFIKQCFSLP
Sequence of cloned GLP-1 receptor (P43220 24-463): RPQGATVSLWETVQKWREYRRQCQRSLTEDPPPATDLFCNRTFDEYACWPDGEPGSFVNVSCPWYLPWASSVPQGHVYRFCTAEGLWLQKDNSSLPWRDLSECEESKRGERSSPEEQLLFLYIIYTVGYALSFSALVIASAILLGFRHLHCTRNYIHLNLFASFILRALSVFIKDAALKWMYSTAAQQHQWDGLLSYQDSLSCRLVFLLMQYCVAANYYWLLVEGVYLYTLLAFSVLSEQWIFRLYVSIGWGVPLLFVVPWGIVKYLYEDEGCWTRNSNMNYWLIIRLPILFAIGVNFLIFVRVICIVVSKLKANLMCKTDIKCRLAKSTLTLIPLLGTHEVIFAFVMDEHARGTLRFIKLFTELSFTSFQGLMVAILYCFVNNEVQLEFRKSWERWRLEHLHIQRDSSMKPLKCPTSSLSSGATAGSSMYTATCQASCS

Molecule: Glucagon-like peptide-1 [GLP-1]
cephalic-induced antral motility (pigs): strongly inhibited
pentagastrin-stimulated gastric acid secretion (human subjects [1]): inhibited
peak plasma level of GLP-1 (continuous 5 day subcutaneous infusion): 88.7 pM
peak plasma level of GLP-1 (subcutaneous injection 30 minutes before meals): 269.4 pM
insulin expression in subsets of cells (human NIP cells): induced
food intake (rats [2]): dose-dependently inhibits
islet size and β cell mass (Zucker diabetic rats): increased
percentage of apoptotic β cells (Zucker diabetic rats): significantly reduced
differentiation to an endocrine phenotype (AR42J cell line): promotes
fecal output (rats [3]; ICV): increase
Gene or Protein activated by GLP-1 (INS-1 cells; Akt and IRS proteins): Akt and IRS proteins
Gene or Protein activated by GLP-1 (INS-1 cells; Calcineurin and NFAT): Calcineurin and NFAT
Gene or Protein activated by GLP-1 (INS-1 cells; Glucokinase): Glucokinase
Gene or Protein activated by GLP-1 (INS-1 cells; Immediate early genes): Immediate early genes
Gene or Protein activated by GLP-1 (INS-1 cells; Kir 6.2 RNA): Kir 6.2 RNA
extent of hydrogen peroxide-induced apoptosis (Min6 mouse islet cells; in vitro): reduced
β cell mass (young and old rats): increased
Rd (glucose disposal) (human volunteers): no significant change
decrease in Ra (endogenous glucose production) (human volunteers): 17%
plasma glucose (human volunteers): decreased
Gene or Protein activated by GLP-1 [4]: Pdx-1 RNA and protein
cell survival [5]: increased
islet labeling index (lean mice): increased
glycogen synthesis (muscle strips): stimulated
gastric emptying [6]: inhibits
calpain activity (calpain): decreased
blood pressure and heart rate (rats [7]): dose-dependently increased
glucose incorporation into glycogen (cultured myotubes): stimulated
development of hypertension (salt-sensitive rats): reduced
cell death (human islets): decreased
glucose-stimulated insulin secretion (human islets): improved
pancreatic insulin content and total beta-cell mass (neonatal GK rat): enhanced
glucose-dependent insulin secretion (fetal pig islet clusters): promoted
Gene or Protein activated by GLP-1 (Multiple cell models): Insulin RNA
protection against glutamate-induced apoptosis [8]: completely protect
extent of glutamate-induced cell death [8]: significantly reduced
contraction amplitude (rat cardiac myocytes): decrease
intracellular cAMP (rat cardiac myocytes): increased
LVEF [9, 17]: 39+2%
global wall motion score indexes [9, 17]: 1.63 ± 0.09
regional wall motion score indexes [9, 17]: 2.02 ± 0.11
LVEF [9, 18]: 29+2%
global wall motion score indexes [9, 18]: 1.94 ± 0.11
regional wall motion score indexes [9, 18]: 2.53 ± 0.08
plasma glucose and free fatty acids ([9]; human, in vivo): significant decrease
Gene or Protein activated by GLP-1 (RIN1046-38 cells; GLUT-1 RNA): GLUT-1 RNA
Gene or Protein activated by GLP-1 (RIN1046-38 cells; Hexokinase I RNA): Hexokinase I RNA
Gene or Protein activated by GLP-1 (RIN1046-38 cells; SNAP-25 phosphorylation): SNAP-25 phosphorylation

DPP-IV degradation [10]: resistant
optimum plasma levels [11]: 30-200 picomoles/liter
Molecule: Val8-GLP-1(7-37)OH

Molecule: [Ser8]GLP-1 (HSEGTFTSDVSSYLEGQAAKEFIAWLVKGRG; also: radiolabel, position not given here; UniProt P01275 98-128, looked up, variant A8S)
uptake into the CNS (CNS): not saturable

Molecule: O=S(=O)(NCCNC/C=C/c1ccc(Br)cc1)c1cccc2cnccc12 [H-89]
effect on the differentiation actions of GLP-1 [12]: only modest effects

Molecule: CNC1(C)C2CCC(C2)C1(C)C (centres unmarked) [mecamylamine]
effect on the GLP-1-dependent increase in heart rate (rats [7]; normal rats): blocked
effect on the stimulatory effect of GLP-1 on blood pressure (rats [7]; normal rats): prevented

effect on the action of GLP-1 7-36 amide (cloned GLP-1 receptor): antagonized
Molecule: GLP-1 (9-36)amide (EGTFTSDVSSYLEGQAAKEFIAWLVKGR-NH2; UniProt P01275 100-127, looked up, fragment) [GLP-1 (9-36) amide, truncated fragment, primary metabolite of GLP-1 produced by DPP-IV]

Molecule: exendin-4
glucose intolerance following partial pancreatectomy (rat pancreatectomy model): attenuates
islet neogenesis and β cell proliferation (rat pancreatectomy model): increases
crossing of the blood brain barrier (blood brain barrier): readily crosses
insulin expression in subsets of cells (human NIP cells): induced
differentiation to an endocrine phenotype (AR42J cell line): promotes
Pdx-1 expression [13]: enhance
insulin expression [13]: not
extent of apoptotic cell death (purified rat b cells): directly reduced
number of cells exhibiting immunopositivity for insulin or glucagon (Capan-1): significant increase
cell survival [5]: increased
β cell proliferation (db/db mice [14]): increased
blood pressure and heart rate (rats [7]): dose-dependently increased
pancreatic insulin content and total beta-cell mass (neonatal GK rat): enhanced
numbers of Tunel+ apoptotic β cells (db/db mice [15]): reduced
progression to more frank diabetes (db/db mice [15]): prevented
β cell mass (db/db mice [15]): increased
protection against glutamate-induced apoptosis [8]: completely protect
extent of glutamate-induced cell death [8]: significantly reduced
β cell apoptosis induced by streptozotocin (STZ) (mice): reduced
β cell proliferation (ob/ob mice): not

Molecule: exendin (9-39)
food intake (rats [2]): increased
effect on GLP-1-induced fecal output (rats [3]): blocked
effect on the insulinotropic and glucagonostatic effects of exogenous GLP-1 (human subjects [16]): blocked

Molecule: [Ser(2)]exendin(1-9)
kainate-induced apoptosis of hippocampal neurons (hippocampal neurons): prevents

Molecule: CN1[C@@H]2CC[C@H]1C[C@@H](OC(=O)C(CO)c1ccccc1)C2 (some centres unmarked) [atropine]
effect on the stimulatory effect of GLP-1 on blood pressure (rats [7]; normal rats): prevented

Molecule: astressin
effect on GLP-1-induced fecal output (rats [3]): blocked

Molecule: COc1cccc(-c2cc(=O)c3ccccc3o2)c1N [PD98059]
effect on the differentiation actions of GLP-1 [12]: abrogated

Molecule: Nc1ncnc2c1ncn2[C@@H]1O[C@@H]2COP(O)(=S)O[C@H]2[C@H]1O (some centres unmarked) [Rp-cAMP, reference compound]
effect on the anti-apoptotic effects of GLP-1 (Min6 mouse islet cells): partially blocked
